# Laboratory results taken from US4973465A, “Microcrystals comprising an active substance having an affinity for phospholipids, and at least one phospholipid, process of preparation” (priority 1986, dated 1990).
# System: infected macrophages
# Assay: in vitro activity relative to infected macrophages, microcrystals containing cholesterol
# Assay type: cell-based
compound,measurement,value
"C[C@@H]1[C@H](O)[C@@H](C)/C=C/C=C/C=C/C=C/C=C/C=C/C=C/[C@H](O[C@@H]2O[C@H](C)[C@@H](O)[C@H](N)[C@@H]2O)C[C@@H]2O[C@](O)(C[C@@H](O)C[C@@H](O)[C@H](O)CC[C@@H](O)C[C@@H](O)CC(=O)O[C@H]1C)C[C@H](O)[C@H]2C(=O)O [control amphotericin B, amphotericin B]",MIC on infected macrophages,0.4 µM
